Experimental data published in the NIST ThermoML archive (doi:10.1016/j.fluid.2015.03.016).
Where “and” joins values, the source holds several entries; their conditions need not be identical. Identical values can stand only once.

Conditions: Liquid, Vibrating wire viscometry

CCCCOC(=O)CCCCC(=O)OCCCC [dibutyl hexanedioate]
Conditions	viscosity
303.14 K, 1250 kPa	4.201 mPa·s
303.14 K, 1280 kPa	4.21 mPa·s
303.14 K, 2750 kPa	4.305 mPa·s
303.14 K, 2760 kPa	4.313 mPa·s
303.14 K, 2770 kPa	4.312 mPa·s
303.14 K, 5400 kPa	4.417 mPa·s
303.14 K, 5420 kPa	4.417 mPa·s and 4.419 mPa·s and 4.413 mPa·s
303.14 K, 7530 kPa	4.511 mPa·s
303.14 K, 7570 kPa	4.513 mPa·s
303.14 K, 7660 kPa	4.532 mPa·s
303.14 K, 10500 kPa	4.68 mPa·s
303.14 K, 10520 kPa	4.686 mPa·s
303.14 K, 10570 kPa	4.683 mPa·s
303.14 K, 20260 kPa	5.251 mPa·s
303.14 K, 20300 kPa	5.25 mPa·s
303.14 K, 20320 kPa	5.249 mPa·s
303.14 K, 65590 kPa	8.312 mPa·s
303.15 K, 1220 kPa	4.205 mPa·s
303.15 K, 1280 kPa	4.208 mPa·s
303.15 K, 1290 kPa	4.21 mPa·s
303.15 K, 1300 kPa	4.211 mPa·s
303.15 K, 2770 kPa	4.312 mPa·s
303.15 K, 5420 kPa	4.415 mPa·s and 4.419 mPa·s
303.15 K, 7660 kPa	4.531 mPa·s and 4.537 mPa·s
303.15 K, 7680 kPa	4.531 mPa·s and 4.533 mPa·s and 4.537 mPa·s
303.15 K, 7730 kPa	4.518 mPa·s
303.15 K, 10560 kPa	4.689 mPa·s
303.15 K, 15380 kPa	4.954 mPa·s
303.15 K, 15390 kPa	4.955 mPa·s and 4.963 mPa·s and 4.951 mPa·s
303.15 K, 30100 kPa	5.839 mPa·s
303.15 K, 30180 kPa	5.821 mPa·s
303.15 K, 30250 kPa	5.828 mPa·s
303.15 K, 30290 kPa	5.827 mPa·s
303.15 K, 30330 kPa	5.817 mPa·s
303.15 K, 30380 kPa	5.827 mPa·s
303.15 K, 39970 kPa	6.452 mPa·s
303.15 K, 40060 kPa	6.443 mPa·s
303.15 K, 40100 kPa	6.443 mPa·s
303.15 K, 40150 kPa	6.446 mPa·s
303.15 K, 49790 kPa	7.073 mPa·s
303.15 K, 49810 kPa	7.073 mPa·s
303.15 K, 49830 kPa	7.07 mPa·s
303.15 K, 49880 kPa	7.058 mPa·s
303.15 K, 65340 kPa	8.283 mPa·s
303.15 K, 65490 kPa	8.277 mPa·s
313.14 K, 1070 kPa	3.362 mPa·s
313.14 K, 1090 kPa	3.364 mPa·s
313.14 K, 1110 kPa	3.371 mPa·s
313.14 K, 1160 kPa	3.369 mPa·s
313.14 K, 2580 kPa	3.416 mPa·s
313.14 K, 2590 kPa	3.412 mPa·s and 3.414 mPa·s
313.14 K, 2600 kPa	3.415 mPa·s
313.14 K, 2610 kPa	3.416 mPa·s
313.14 K, 5050 kPa	3.518 mPa·s
313.14 K, 5060 kPa	3.518 mPa·s
313.14 K, 7630 kPa	3.595 mPa·s
313.14 K, 10470 kPa	3.713 mPa·s
313.14 K, 15150 kPa	3.89 mPa·s and 3.889 mPa·s
313.14 K, 15210 kPa	3.888 mPa·s
313.14 K, 20300 kPa	4.123 mPa·s
313.14 K, 20430 kPa	4.12 mPa·s
313.14 K, 20440 kPa	4.123 mPa·s
313.14 K, 30160 kPa	4.553 mPa·s
313.14 K, 30180 kPa	4.556 mPa·s and 4.554 mPa·s
313.14 K, 30190 kPa	4.556 mPa·s
313.14 K, 40210 kPa	5.026 mPa·s
313.14 K, 40270 kPa	5.022 mPa·s
313.14 K, 40290 kPa	5.03 mPa·s
313.14 K, 40330 kPa	5.028 mPa·s
313.14 K, 50580 kPa	5.596 mPa·s
313.14 K, 50590 kPa	5.598 mPa·s
